{"source": "patent US20100081699A1", "about": "“YEAST PLATFORM CONSTRUCTION AND SCREENING METHODS” (Bioalvo-Servicos ,Investigacao e Desenvolvimento em …, priority 2006, published 2010)", "target": "T1, human IDO (Homo sapiens, UniProt P14902)", "T1 construct": "The IDO gene was obtained from the IMAGE consortium as a 1586 bps fragment cloned in the vector pCMV-SPORT6; expressed in transfected cells", "T1 sequence (P14902 whole entry, the tested form may be a part)": "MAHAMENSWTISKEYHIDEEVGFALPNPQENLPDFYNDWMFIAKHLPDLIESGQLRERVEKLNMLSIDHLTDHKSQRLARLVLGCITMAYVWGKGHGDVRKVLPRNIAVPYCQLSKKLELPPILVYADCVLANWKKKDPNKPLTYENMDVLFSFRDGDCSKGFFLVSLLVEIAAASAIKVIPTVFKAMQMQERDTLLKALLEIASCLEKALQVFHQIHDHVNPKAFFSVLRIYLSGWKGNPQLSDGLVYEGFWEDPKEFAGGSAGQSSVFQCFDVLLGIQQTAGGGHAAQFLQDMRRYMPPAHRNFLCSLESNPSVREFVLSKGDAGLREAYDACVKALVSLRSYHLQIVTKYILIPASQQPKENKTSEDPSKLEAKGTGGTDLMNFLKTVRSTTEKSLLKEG", "assay": "Growth inhibition of BLOCKADE cells with small molecule compounds (life/death screen)", "type": "cell-based", "conditions": "S. cerevisiae BLOCKADE cells, minimum medium with 2% galactose, 10, 5, 2.5 and 1 μM compound, 3 days at 30° C.; WT cells at 10 μM as cytotoxicity control", "description": "Cells were pre-grown on a mixture of 1.2% glucose and 0.8% galactose until reaching early exponential phase (OD=1-2). The cells were washed three times with water and then resuspended in fresh selective medium containing 2% galactose, in order to fully activate IDO expression. Cells were dispensed into 96-well plates and inhibitor compounds were added to the cell culture at concentrations of 10, 5, 2.5 and 1 μM. Growth was monitored during 3 days at 30° C. under agitation. Compounds were selected from diverse libraries.\nIDO inhibitory compounds were identified as those that repressed the growth of the cells. Possible cytotoxic effects of the compounds were identified by growing the wild type strain in the same condition at a concentration of 10 μM. Compounds inhibiting both BLOCKADE cells and wild type strains were considered as cytotoxic and therefore not selected for further development. Compounds inhibiting only BLOCKADE cells, but not the wild type strains were considered as hits, potential IDO inhibitory compounds."}
{"smiles": "O=C(O)CCn1c2ccc(Br)cc2c2cc(Br)ccc21", "note": "[BLK200769]", "values": [{"measurement": "Inhibition of growth of BLOCKADE cells", "result": "inhibition"}]}
